Test results from patent US20060241122A1, “Combination therapy for the treatment of neoplasms” (priority 2003, published 2006).

Key:
[1] = system: human colorectal carcinoma HCT116 cells; assay: Anti-proliferation assay (Alamar Blue metabolism), HCT116 cells; conditions: for Percent inhibition of Alamar Blue Metabolism in HCT116 cells: 72 h;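 as to all read-outs here: cells in 384-well plates exposed to compound combination matrices for 72 h, Alamar Blue fluorescence read (excitation 530 nm), inhibition calculated against mean of vehicle-only wells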
Experimental: Stock solutions (1000×) of each compound were prepared in DMSO and stored at −20° C. Master stock plates of 2-fold or 4-fold serial dilutions of individual compounds were prepared in 384-well plates. Combination matrices of test compounds were generated from these master stock plates by dilution into growth media described above. […] The combination matrices were used immediately and discarded.
The anti-proliferation assays were performed in 384-well plates. […] Cells were diluted in culture media such that 3,000 SKMEL-28 cells, or 1,500 cells for all the other cell lines, were delivered in 35 μl of media into each assay well. Assay plates were incubated for 16-24 hours 37° C.±0.5° C. with 5% CO2. After incubation, 4.5 μl of 10× stock solutions from the combination matrices were added to 40 μl of culture media. Assay plates were further incubated for 72 hours at 37° C.±0.5° C. with 5% CO2. […] Alamar Blue metabolism was quantified by the amount of fluorescence intensity 3.5-5.0 hours after addition. Quantification, using an LJL Analyst AD reader (LJL Biosystems), was taken in the middle of the well with high attenuation, a 100 msec read time, an excitation filter at 530 nm, and an emission filter at 575 nm. For some experiments, quantification was performed using a Wallac Victor^2 reader. Measurements were taken at the top of the well with stabilized energy lamp control; a 100 msec read time, an excitation filter at 530 nm, and an emission filter at 590 nm.

[2] = system: human pancreatic cancer PANC1 cells; assay: Anti-proliferation assay (Alamar Blue metabolism), PANC1 cells; format: cell-based; conditions: 72 h
Excerpt: (§1) The combination matrices were used immediately and discarded.

[3] = system: human melanoma SKMEL-28 cells; assay: Anti-proliferation assay (Alamar Blue metabolism), SKMEL-28 cells; format: cell-based; conditions: 72 h
Excerpt: as §1

[4] = system: human prostate cancer DU145 cells; assay: Anti-proliferation assay (Alamar Blue metabolism), DU145 cells; format: cell-based; conditions: 72 h
Excerpt: as §1

[5] = system: non-small cell lung carcinoma A549 cells; assay: Anti-proliferation assay (Alamar Blue metabolism), A549 cells; format: cell-based; conditions: 72 h
Experimental: Inhibition of proliferation was measured by anti-proliferation assay as described below after incubation with the test compound(s) for 72 hours.
as §1
Cells were diluted in culture media such that 3,000 SKMEL-28 cells, or 1,500 cells for all the other cell lines, were delivered in 35 μl of media into each assay well. Assay plates were incubated for 16-24 hours 37° C.±0.5° C. with 5% CO2. […] Assay plates were further incubated for 72 hours at 37° C.±0.5° C. with 5% CO2. […] Alamar Blue metabolism was quantified by the amount of fluorescence intensity 3.5-5.0 hours after addition.
The percent inhibition (% I) for each well was calculated using the following formula: % I=[(avg. untreated wells−treated well)/(avg. untreated wells)]×100 The average untreated well value (avg. untreated wells) is the arithmetic mean of 40 wells from the same assay plate treated with vehicle alone.

Compound: CCC(C)n1ncn(-c2ccc(N3CCN(c4ccc(OCC5COC(Cn6cncn6)(c6ccc(Cl)cc6Cl)O5)cc4)CC3)cc2)c1=O (centres unmarked) [Itraconazole, itraconazole]
- inhibition at 7 µM ([1]; Homo sapiens, HCT-116, read-out: Percent inhibition of Alamar Blue Metabolism, cerivastatin 0 μM, itraconazole 7 μM): 24.3%
- inhibition at 28 µM ([1]; Homo sapiens, HCT-116, read-out: Percent inhibition of Alamar Blue Metabolism, cerivastatin 0 μM, itraconazole 28 μM): 27.7%
- Percent inhibition of Alamar Blue Metabolism in HCT116 cells ([1]; Table 2: itraconazole 0.87 μM + simvastatin at row conc. c1 (0-48 μM)): 3.9%
- Percent inhibition of Alamar Blue Metabolism in HCT116 cells ([1]; Table 2: itraconazole 7 μM + simvastatin at row conc. c1 (0-48 μM)): 18.9%
- Percent inhibition of Alamar Blue Metabolism in HCT116 cells ([1]; Table 2: itraconazole 14 μM + simvastatin at row conc. c1 (0-48 μM)): 19.2%
- Percent inhibition of Alamar Blue Metabolism in HCT116 cells ([1]; Table 2: itraconazole 28 μM + simvastatin at row conc. c1 (0-48 μM)): 18.6%
- Percent inhibition of Alamar Blue Metabolism in HCT116 cells ([1]; Table 3: itraconazole 0.87 μM + simvastatin sodium at row conc. c1 (0-22 μM)): −10.7%
- Percent inhibition of Alamar Blue Metabolism in HCT116 cells ([1]; Table 3: itraconazole 7 μM + simvastatin sodium at row conc. c1 (0-22 μM)): 12.2%
- Percent inhibition of Alamar Blue Metabolism in HCT116 cells ([1]; Table 3: itraconazole 14 μM + simvastatin sodium at row conc. c1 (0-22 μM)): 10.6%
- Percent inhibition of Alamar Blue Metabolism in HCT116 cells ([1]; Table 3: itraconazole 28 μM + simvastatin sodium at row conc. c1 (0-22 μM)): 17.2%
- Percent inhibition of Alamar Blue Metabolism in HCT116 cells ([1]; Table 7: itraconazole 0.87 μM + atorvastatin at row conc. c1 (0-36 μM)): 1.7%
- Percent inhibition of Alamar Blue Metabolism in HCT116 cells ([1]; Table 7: itraconazole 7 μM + atorvastatin at row conc. c1 (0-36 μM)): 17.4%
- Percent inhibition of Alamar Blue Metabolism in HCT116 cells ([1]; Table 7: itraconazole 14 μM + atorvastatin at row conc. c1 (0-36 μM)): 18.1%
- Percent inhibition of Alamar Blue Metabolism in HCT116 cells ([1]; Table 7: itraconazole 28 μM + atorvastatin at row conc. c1 (0-36 μM)): 18.6%
- Percent inhibition of Alamar Blue Metabolism in HCT116 cells ([1]; Table 11: itraconazole 0.87 μM + fluvastatin at row conc. c1 (0-49 μM)): 2.2%
- Percent inhibition of Alamar Blue Metabolism in HCT116 cells ([1]; Table 11: itraconazole 7 μM + fluvastatin at row conc. c1 (0-49 μM)): 18.9%
- Percent inhibition of Alamar Blue Metabolism in HCT116 cells ([1]; Table 11: itraconazole 14 μM + fluvastatin at row conc. c1 (0-49 μM)): 20.2%
- Percent inhibition of Alamar Blue Metabolism in HCT116 cells ([1]; Table 11: itraconazole 28 μM + fluvastatin at row conc. c1 (0-49 μM)): 20.4%
- Percent inhibition of Alamar Blue Metabolism in HCT116 cells ([1]; Table 14: itraconazole 0.87 μM + lovastatin at row conc. c1 (0-48 μM)): 5.1%
- Percent inhibition of Alamar Blue Metabolism in HCT116 cells ([1]; Table 14: itraconazole 7 μM + lovastatin at row conc. c1 (0-48 μM)): 17.8%
- Percent inhibition of Alamar Blue Metabolism in HCT116 cells ([1]; Table 14: itraconazole 14 μM + lovastatin at row conc. c1 (0-48 μM)): 19.5%
- Percent inhibition of Alamar Blue Metabolism in HCT116 cells ([1]; Table 14: itraconazole 28 μM + lovastatin at row conc. c1 (0-48 μM)): 20.7%
- Percent inhibition of Alamar Blue Metabolism in HCT116 cells ([1]; Table 15: itraconazole 0.87 μM + lovastatin sodium at row conc. c1 (0-22 μM)): −10.9%
- Percent inhibition of Alamar Blue Metabolism in HCT116 cells ([1]; Table 15: itraconazole 7 μM + lovastatin sodium at row conc. c1 (0-22 μM)): 18.0%
- Percent inhibition of Alamar Blue Metabolism in HCT116 cells ([1]; Table 15: itraconazole 14 μM + lovastatin sodium at row conc. c1 (0-22 μM)): 15.1%
- Percent inhibition of Alamar Blue Metabolism in HCT116 cells ([1]; Table 15: itraconazole 28 μM + lovastatin sodium at row conc. c1 (0-22 μM)): 9.1%
- Percent inhibition of Alamar Blue Metabolism in PANC1 cells ([2]; Table 4: itraconazole 0.87 μM + simvastatin at row conc. c1 (0-48 μM)): 2.6%
- Percent inhibition of Alamar Blue Metabolism in PANC1 cells ([2]; Table 4: itraconazole 7 μM + simvastatin at row conc. c1 (0-48 μM)): −2.6%
- Percent inhibition of Alamar Blue Metabolism in PANC1 cells ([2]; Table 4: itraconazole 14 μM + simvastatin at row conc. c1 (0-48 μM)): 2.1%
- Percent inhibition of Alamar Blue Metabolism in PANC1 cells ([2]; Table 4: itraconazole 28 μM + simvastatin at row conc. c1 (0-48 μM)): 1.7%
- Percent inhibition of Alamar Blue Metabolism in PANC1 cells ([2]; Table 8: itraconazole 0.87 μM + atorvastatin at row conc. c1 (0-36 μM)): 9.8%
- Percent inhibition of Alamar Blue Metabolism in PANC1 cells ([2]; Table 8: itraconazole 7 μM + atorvastatin at row conc. c1 (0-36 μM)): −0.6%
- Percent inhibition of Alamar Blue Metabolism in PANC1 cells ([2]; Table 8: itraconazole 14 μM + atorvastatin at row conc. c1 (0-36 μM)): −4.4%
- Percent inhibition of Alamar Blue Metabolism in PANC1 cells ([2]; Table 8: itraconazole 28 μM + atorvastatin at row conc. c1 (0-36 μM)): −2.5%
- Percent inhibition of Alamar Blue Metabolism in PANC1 cells ([2]; Table 12: itraconazole 0.87 μM + fluvastatin at row conc. c1 (0-49 μM)): 4.9%
- Percent inhibition of Alamar Blue Metabolism in PANC1 cells ([2]; Table 12: itraconazole 7 μM + fluvastatin at row conc. c1 (0-49 μM)): −1.9%
- Percent inhibition of Alamar Blue Metabolism in PANC1 cells ([2]; Table 12: itraconazole 14 μM + fluvastatin at row conc. c1 (0-49 μM)): −8.1%
- Percent inhibition of Alamar Blue Metabolism in PANC1 cells ([2]; Table 12: itraconazole 28 μM + fluvastatin at row conc. c1 (0-49 μM)): −3.7%
- Percent inhibition of Alamar Blue Metabolism in SKMEL-28 cells ([3]; Table 5: itraconazole 0.87 μM + simvastatin at row conc. c1 (0-48 μM)): 1.0%
- Percent inhibition of Alamar Blue Metabolism in SKMEL-28 cells ([3]; Table 5: itraconazole 7 μM + simvastatin at row conc. c1 (0-48 μM)): 13.5%
- Percent inhibition of Alamar Blue Metabolism in SKMEL-28 cells ([3]; Table 5: itraconazole 14 μM + simvastatin at row conc. c1 (0-48 μM)): 19.3%
- Percent inhibition of Alamar Blue Metabolism in SKMEL-28 cells ([3]; Table 5: itraconazole 28 μM + simvastatin (0-48 μM)): 16.7%
- Percent inhibition of Alamar Blue Metabolism in SKMEL-28 cells ([3]; Table 9: itraconazole 0.87 μM + atorvastatin at row conc. c1 (0-36 μM)): 1.4%
- Percent inhibition of Alamar Blue Metabolism in SKMEL-28 cells ([3]; Table 9: itraconazole 7 μM + atorvastatin at row conc. c1 (0-36 μM)): 11.2%
- Percent inhibition of Alamar Blue Metabolism in SKMEL-28 cells ([3]; Table 9: itraconazole 14 μM + atorvastatin at row conc. c1 (0-36 μM)): 13.0%
- Percent inhibition of Alamar Blue Metabolism in SKMEL-28 cells ([3]; Table 9: itraconazole 28 μM + atorvastatin at row conc. c1 (0-36 μM)): 13.5%
- Percent inhibition of Alamar Blue Metabolism in SKMEL-28 cells ([3]; Table 13: itraconazole 0.87 μM + fluvastatin at row conc. c1 (0-49 μM)): 2.8%
- Percent inhibition of Alamar Blue Metabolism in SKMEL-28 cells ([3]; Table 13: itraconazole 7 μM + fluvastatin at row conc. c1 (0-49 μM)): 11.3%
- Percent inhibition of Alamar Blue Metabolism in SKMEL-28 cells ([3]; Table 13: itraconazole 14 μM + fluvastatin at row conc. c1 (0-49 μM)): 13.3%
- Percent inhibition of Alamar Blue Metabolism in SKMEL-28 cells ([3]; Table 13: itraconazole 28 μM + fluvastatin at row conc. c1 (0-49 μM)): 16.3%
- Percent inhibition of Alamar Blue Metabolism in DU145 cells ([4]; Table 6: itraconazole 0.87 μM + atorvastatin at row conc. c1 (0-36 μM)): 0.8%
- Percent inhibition of Alamar Blue Metabolism in DU145 cells ([4]; Table 6: itraconazole 7 μM + atorvastatin at row conc. c1 (0-36 μM)): −3.5%
- Percent inhibition of Alamar Blue Metabolism in DU145 cells ([4]; Table 6: itraconazole 14 μM + atorvastatin at row conc. c1 (0-36 μM)): −4.2%
- Percent inhibition of Alamar Blue Metabolism in DU145 cells ([4]; Table 6: itraconazole 28 μM + atorvastatin at row conc. c1 (0-36 μM)): −8.8%
- Percent inhibition of Alamar Blue Metabolism in DU145 cells ([4]; Table 10: itraconazole 0.87 μM + fluvastatin at row conc. c1 (0-49 μM)): 2.1%
- Percent inhibition of Alamar Blue Metabolism in DU145 cells ([4]; Table 10: itraconazole 7 μM + fluvastatin at row conc. c1 (0-49 μM)): −7.4%
- Percent inhibition of Alamar Blue Metabolism in DU145 cells ([4]; Table 10: itraconazole 14 μM + fluvastatin at row conc. c1 (0-49 μM)): −5.6%
- Percent inhibition of Alamar Blue Metabolism in DU145 cells ([4]; Table 10: itraconazole 28 μM + fluvastatin at row conc. c1 (0-49 μM)): −9.0%
- Percent inhibition of Alamar Blue Metabolism in A549 cells ([5]; itraconazole 0.87 μM + simvastatin at row conc. c1 (0-48 μM)): 13.5%
- Percent inhibition of Alamar Blue Metabolism in A549 cells ([5]; itraconazole 7 μM + simvastatin at row conc. c1 (0-48 μM)): 4.0%
- Percent inhibition of Alamar Blue Metabolism in A549 cells ([5]; itraconazole 14 μM + simvastatin at row conc. c1 (0-48 μM)): 13.3%
- Percent inhibition of Alamar Blue Metabolism in A549 cells ([5]; itraconazole 28 μM + simvastatin at row conc. c1 (0-48 μM)): 13.9%
